{"source": "patent US20110112184A1", "about": "“COMPOUNDS WITH GLYCIDIC STRUCTURE ACTIVE IN THE THERAPY OF SYSTEMIC AND LOCAL INFLAMMATION” (priority 2008, published 2011)", "key": {"[1]": {"tested_on": "A549 human pneumocytes", "experiment": "LPS-induced IL-8 production by A549 human pneumocytes", "format": "cell-based", "settings": "LPS from Pseudomonas aeruginosa 100 μg/ml, compound 4 5 μg/L", "procedure": "FIG. 2B. LPS (100 μg/ml)-induced IL-8 production by A549 human pneumocytes in the absence or presence of compound (Comp) 4 (5 μg/L).\nThe effect of the compounds on the release of IL-8 or KC was tested upon stimulation of intestinal epithelial cells (IEC) with LPS from Salmonella enterica abortus equi. The human IEC line HT29 was used for these experiments. Cells were cultured for 18 h in medium alone or in medium additioned with different concentrations of compounds 4, 5, 6, 7, 4′ and 14 (from 50 mg/L to 5 μg/L). Then, cells were stimulated for 6 h with LPS (1 μg/ml). […] Similar experiments were performed on a human pneumocyte type II cell line (A549) using compound 4 and LPS from Pseudomonas aeruginosa."}, "[2]": {"tested_on": "Caco-2 enterocytes", "experiment": "Doxorubicin-induced injury of Caco-2 enterocytes (ROS in culture medium)", "format": "cell-based", "settings": "Caco-2 monolayer, 3 μM doxorubicin + compound 4", "procedure": "FIG. 10. Measurement of ROS in the cell culture medium of untreated enterocytes or enterocytes treated with doxorubicin+compound 4. Ctrl=Untreated (control) cells; Doxo=Cells treated with doxorubicin alone; Doxo comp 4=Cells treated with doxorubicin and compound 4.\nCompound 4 has shown protective efficacy also in an in vitro model of chemotherapy-induced injury of enterocytes. In this model, a monolayer of Caco-2 enterocytes was treated with 3 μM doxorubicin alone or doxorubicin and 4."}, "[3]": {"tested_on": "mice treated with doxorubicin and 5-fluoruracil", "experiment": "Chronic doxorubicin- and 5-fluoruracil-induced enterocyte injury in mice", "format": "in vivo", "procedure": "FIG. 11. Serum levels of KC in untreated mice or mice submitted to acute treatment with doxorubicin or chronic treatment with doxorubicin and 5-fluorouracil. Untr=Untreated; Doxo 27 mg=Mice submitted to acute treatment with doxorubicin; Doxo 27 mg comp 4=Mice submitted to acute treatment with doxorubicin and concomitant p.o. administration of comp 4; Doxo cron=Mice submitted to chronic treatment with doxorubicin and 5-fluoruracil; Doxo cron comp 4=Mice submitted to chronic treatment with doxorubicin and 5-fluoruracil and concomitant p.o. administration of compound 4.\nFIG. 13. Histology of the epithelium of the small intestine in mice after chronic treatment with doxorubicin and 5-fluoruracil (DOXO+FLUO) or chronic treatment with doxorubicin and 5-fluoruracil and concomitant administration of compound 4 (comp 4+DOXO+FLUO).\nFor the chronic model of enterocyte injury, doxorubicin was administered 1×/week for three weeks (7 mg/kg for the first two administrations, […] for the last administration). At the same times, mice were administered also 5-fluoruracil at 100 mg/kg. Administrations of the chemotherapeutics were performed intraperitoneally. Some of the mice were treated at the same times with compound 4 (25 μg/kg, orally). Recovery of the blood for the determination of circulating KC levels and subsequent sacrifice of the animals were performed at 72 h after the last treatment. […]"}, "[4]": {"tested_on": "ovalbumin-treated C57B1/6 mice", "experiment": "Ovalbumin mouse model of asthma", "format": "in vivo", "excerpt": "FIG. 8. Serum levels of IL-4, IL-5 and IL-10 in untreated mice or mice treated with ovalbumin+comp 4. Untr=Untreated mice; comp 4=Mice treated with comp 4 alone; OVA=Mice treated with ovalbumin alone; comp 4+OVA=Mice treated with comp 4 and ovalbumin.\nFIG. 9. BALF levels of IL-4 and IL-5 in untreated mice or mice treated with ovalbumin+compound 4. Untr=Untreated mice; comp 4=Mice treated with comp 4 alone; OVA=Mice treated with ovalbumin alone; comp 4+OVA=Mice treated with comp 4 and ovalbumin.\nCompound 4 was tested in a mouse model of asthma where glucose had already been shown therapeutic efficacy. For this purpose, 10 male C57B1/6 mice were immunized intraperitoneally with 100 μg of ovalbumin (grade V) suspended in 500 μg Al(OH)3. Another group of 10 animals was treated the same way and, in addition, also with compound 4 (25 μg/kg) administered orally. One week after the first immunization, the same treatments were repeated. Two weeks after the first immunization, the first group of animals was challenged for 25 min with an aerosol of 5% (wt/vol) ovalbumin every day, for 5 consecutive days, while the other group received aerosolized ovalbumin plus compound 4 (25 μg/kg).\nA hallmark of inflammatory damage to the lung is the development of high-permeability edema, characterized by high protein content in the edema fluid. Indeed, in the lungs of ovalbumin-exposed mice the protein concentration in the BALF was markedly high (0.729 mg/ml), witnessing an important damage to the lungs of these animals. On the other hand, the protein concentration in the BALF of ovalbumin+4-treated animals was similar to that of untreated animals (0.394 mg/ml).\nEventually, also the cytokine levels in the sera and BALFs of ovalbumin- or ovalbumin+compound 4-treated animals were measured. The levels of the cytokines IL-5 and IL-4, which are pivotal in the pathogenesis of asthmatic disease, were elevated in both sera and BALF from ovalbumin-treated mice, but normal in ovalbumin+4-treated animals."}, "[5]": {"tested_on": "LPS/GalN-induced shock in FVB mice", "experiment": "LPS/galactosamine-induced shock in mice", "format": "in vivo", "settings": "LPS 5 μg/mouse + GalN 40 mg/mouse i.p., compound 4 25 μg/kg (0.5 μg/mouse) p.o.", "procedure": "FIG. 4. Protection afforded by comp 4 in LPS-induced shock in mice. Untr=untreated; LPSGalN=Mice treated with LPS/GalN alone; LPSGalN Comp 4=Mice treated with LPS/GalN+Comp 4=Mice treated with Comp 4 alone.\nCompound 4 was tested in LPS/galactosamine (GalN)-induced shock in mice. LPS shock was induced in 2-months old FVB mice through intraperitoneal (i.p). injection of 5 μg LPS/mouse (LPS from Salmonella enterica abortus equi) and 40 mg/mouse GalN (LPS/GalN)."}, "[6]": {"tested_on": "SGLT-1-mediated intestinal glucose absorption", "experiment": "Glycemia in mice after oral glucose challenge", "format": "in vivo", "settings": "plasma, mice challenged orally with 2.5 g/kg glucose + 250 μg/kg compound 4, 1 h", "procedure": "As such, it was argued that it might act as a functional antagonist of SGLT-1-mediated intestinal glucose absorption, and used for the control of hyperglycemia in type II diabetes. This possibility was tested in the following experiments.\nIn a first set of experiments mice were orally challenged with 2.5 g/kg of glucose with or without concomitant administration of compound 4 (250 μg/kg) and glycemia was measured after 1 h."}}}
{"smiles": "CN(C)c1cccc2c(S(=O)(=O)NCC[C@H]3O[C@H](CO)[C@@H](O)[C@H](O)[C@H]3O)cccc12", "note": "[Compound 4, 5-(Dimethylamino)-N-[2′-(α-D-glucopyranosyl)ethyl]-1-naphthalenesulphonamide]", "values": [{"measurement": "LPS-induced IL-8 production", "setting": "[1]", "value": "significantly inhibited"}, {"measurement": "reactive oxygen species (ROS) in the cell culture medium", "setting": "[2]", "value": "complete inhibition"}, {"measurement": "Histology of the small intestine", "setting": "[3]; chronic doxorubicin + 5-fluoruracil + compound 4 25 μg/kg orally", "value": "completely normal morphology"}, {"measurement": "circulating KC levels", "setting": "[3]; doxorubicin 1×/week for three weeks + 5-fluoruracil 100 mg/kg i.p. + compound 4 25 μg/kg orally, 72 h after last treatment", "value": "brought the levels back to those observed in untreated mice"}, {"measurement": "Protection against ovalbumin inflammation", "setting": "[4]; oral administration of compound 4 during aerosol ovalbumin challenge (data not shown)", "value": "protects the ovalbumin inflammation analogously to the aerosol challenge"}, {"measurement": "IL-4 levels in BALF", "setting": "[4]; ovalbumin + compound 4", "value": "normal"}, {"measurement": "IL-4 levels in sera", "setting": "[4]; ovalbumin + compound 4", "value": "normal"}, {"measurement": "IL-5 levels in BALF", "setting": "[4]; ovalbumin + compound 4", "value": "normal"}, {"measurement": "IL-5 levels in sera", "setting": "[4]; ovalbumin + compound 4", "value": "normal"}, {"measurement": "IL-10 levels in sera", "setting": "[4]; ovalbumin + compound 4", "value": "greatly increased"}, {"measurement": "protein concentration in the BALF", "setting": "[4]; ovalbumin + compound 4 (25 μg/kg)", "value": 0.394, "unit": "mg/mL"}, {"measurement": "eosinophils in BALF", "setting": "[4]; ovalbumin + compound 4 (25 μg/kg; oral at immunization, aerosol at challenge)", "value": 127, "unit": "cells/ml"}, {"measurement": "Protection against LPS/GalN-induced shock", "setting": "[5]", "value": "full protection"}, {"measurement": "Glycemia levels", "setting": "[6]", "value": 150, "unit": "mg/dL"}]}
